Test results as given in paper PMC8312610, “F4, a collagen XIX-derived peptide, inhibits tumor angiogenesis through αvβ3 and α5β1 integrin interaction” (Cell Adhesion & Migration, 2021).
Positions of bridges follow the written chain, without caps; N, C: chain ends. No end group written: not given here.

Tests used:
[1] = test system: α5β1 integrin; experiment: F4 affinity chromatography of HUVEC extracts with western blot; format: binding, human; details: HUVEC protein extract, F4 peptide-Sepharose (F4 reduced with DTT), NaCl elution 0.15, 0.6 and 1.0 M, +4°C, N = 2
Description: (§1) HUVEC were cultured as previously described in a Nunclon® 150 cm^2 flask. At 80%-confluence, cells were washed with HBSS and scrapped in lysis buffer (RIPA buffer, Sigma, ref R0278-50ML) supplemented with 1% (v/v) Halt Protease Inhibitor Cocktail (ThermoFisher, ref 78430). Cell lysates were incubated for 30 min at +4°C and vortexed every 5 min. Unsoluble debris were pelleted by centrifugation at 10,000 g for 10 min at +4°C. Bio-Rad Protein Assay (Bio-Rad, Marne-La-Coquette, France) was used to determine the protein concentrations according to the manufacturer’s instructions. […] HUVEC protein extracts were chromatographed at +4°C. Unbound protein were removed with 30 mL of washing buffer (10 mM Tris, 1 mM CaCl2, 1 mM MgCl2, pH 7.6, 1% (v/v) Protease Inhibitor Cocktail and 0.1% (w/v) octylglucoside (Sigma, ref O8001-100 MG)) according to the manufacturer’s instructions. Proteins bound to the affinity column were then eluted with elution buffer (10 mM Tris, pH 7.6, 1% (w/v) PIC and 0.1% (w/v) octylglucoside) supplemented with increasing concentrations of NaCl (0.15, 0.6 and 1 M). Absorbance was read at 280 nm to check protein elution and fractions corresponding to the different NaCl concentrations were pooled and concentrated using NanoSep Centrifugal Devices (cutoff 10 kDa; Pall). […]

[2] = test system: αvβ3 integrin; experiment: as above; format: binding, human; details: HUVEC protein extract, F4 peptide-Sepharose (F4 reduced with DTT), NaCl elution 0.15, 0.6 and 1.0 M, +4°C, N = 2
Description: as §1

[3] = test system: α5β1 integrin; experiment: Solid phase assay, direct binding to α5β1; set-up: species or system human; details: solid phase assays
Source text: Figure 5. F4 directly binds to αvβ3 and α5β1 integrins. Direct interaction between αvβ3 or α5β1 integrin and F4 was studied using solid phase assays as described in the material and method section. The F4 peptide was biotinylated to allow its detection using the streptavidin-peroxidase complex. Different conditions were used. (a-b) The amounts of coated αvβ3 (a) or α5β1 integrin (b) were increased while biotinylated F4 peptide was kept constant. (c-d) The concentration of biotinylated F4 peptide was increased while coated amounts of αvβ3 (c) or α5β1 (d) integrins were kept constant. (e-f) Competitive assays were performed using increasing concentrations of F4 peptide while biotinylated-F4 peptide and αvβ3 (e) or α5β1 (f) integrins were kept constant. […]
(§2) Wells of a 96-well plate were coated with α5β1 (ref. 3230-A5-050, R&D systems) and/or αvβ3 integrin (ref. 3050-AV-050, R&D systems) at different concentrations ranging from 26 × 10^−7 mol/L to 0.1 × 10^−7 mol/L (100 μL per well in PBS). […] The intensity of the yellow coloration was measured at 450 nm with an LB940 spectrophotometer (Berthold Technologies).
The optimum integrin amount for the coating was determined using the above protocol and the optimum ligand concentration was sought using different dilutions of the biotinylated-F4 peptide ranging from 20.8 × 10^−4 to 0.16 × 10^−4 mol/L.

[4] = test system: α5β1 integrin; experiment: Solid phase competition assay with biotinylated-F4, α5β1; format: binding, human; details: unlabeled F4, molar ratio 1/0 to 1/125, integrin coated at 26 × 10^−7 mol/L, 90 min, room temperature, N = 2
Source text: Figure 5. F4 directly binds to αvβ3 and α5β1 integrins. Direct interaction between αvβ3 or α5β1 integrin and F4 was studied using solid phase assays as described in the material and method section. The F4 peptide was biotinylated to allow its detection using the streptavidin-peroxidase complex. Different conditions were used. (a-b) The amounts of coated αvβ3 (a) or α5β1 integrin (b) were increased while biotinylated F4 peptide was kept constant. (c-d) The concentration of biotinylated F4 peptide was increased while coated amounts of αvβ3 (c) or α5β1 (d) integrins were kept constant. (e-f) Competitive assays were performed using increasing concentrations of F4 peptide while biotinylated-F4 peptide and αvβ3 (e) or α5β1 (f) integrins were kept constant. The solid phase assays were repeated twice (N = 2; n = 2)
as §2, with “PBS). The 96-well plate was left overnight at room temperature. The coating was then blocked with TBS containing 5% nonfat dry milk, 1 mM MgCl2 and 1 mM CaCl2 for 2 h at room temperature.” for “PBS).”, “Technologies). […]” for “Technologies).”

[5] = test system: melanoma cell; details: cited from earlier work
Source text: (§3) The aim of the present work was to study the anti-angiogenic properties of F4 peptide. […] By affinity chromatography, we identified αvβ3 and α5β1 integrins as potential receptors for F4 peptide on endothelial cell surface. Using solid phase assays, ... || Type XIX collagen, that belongs to the FACIT family (Fibril-Associated Collagens with Interrupted Triple helices), is a minor collagen associated to the basement membrane zone.

[6] = test system: mouse melanoma model; details: previously demonstrated by the authors, no ref in abstract; cited from earlier work
Source text: as §3

CNPEDCLYPVSHAHQR (disulfide 1-6 (inferred)) [F4, collagen XIX-derived peptide, released by plasmin from type XIX collagen]
α5 and β1 subunits bound to F4 column (western blot) [1]: two bands in 0.6 M NaCl eluted sample which matched the 140 and 120 kDa bands of the recombinant α5β1 integrin | αv and β3 subunits bound to F4 column (western blot) [2]: two bands which matched the 150 and 110 kDa bands of the recombinant αvβ3 integrin | direct binding to α5β1 (conclusion) [3]: binds to both αvβ3 and α5β1 integrins in a direct manner | competition with biotinylated-F4 binding to α5β1 [4]: decreased consequently | melanoma cell migration ([5]; in vitro, previously demonstrated by the authors, no ref in abstract): able to inhibit melanoma cell migration | melanoma cell migration, compared with NC1(XIX) domain ([5]; ref [24]): reproduced the whole NC1(XIX) domain effect on melanoma cell migration | cancer progression in mouse melanoma model [6]: cancer progression in a mouse melanoma model
